Assay results as given in paper PMC2784880 (2009).

Target: T1, trypanothione synthetase-amidase (TRYS) (Trypanosoma brucei, UniProt Q586P2)
T1 sequence (Q586P2 1-627): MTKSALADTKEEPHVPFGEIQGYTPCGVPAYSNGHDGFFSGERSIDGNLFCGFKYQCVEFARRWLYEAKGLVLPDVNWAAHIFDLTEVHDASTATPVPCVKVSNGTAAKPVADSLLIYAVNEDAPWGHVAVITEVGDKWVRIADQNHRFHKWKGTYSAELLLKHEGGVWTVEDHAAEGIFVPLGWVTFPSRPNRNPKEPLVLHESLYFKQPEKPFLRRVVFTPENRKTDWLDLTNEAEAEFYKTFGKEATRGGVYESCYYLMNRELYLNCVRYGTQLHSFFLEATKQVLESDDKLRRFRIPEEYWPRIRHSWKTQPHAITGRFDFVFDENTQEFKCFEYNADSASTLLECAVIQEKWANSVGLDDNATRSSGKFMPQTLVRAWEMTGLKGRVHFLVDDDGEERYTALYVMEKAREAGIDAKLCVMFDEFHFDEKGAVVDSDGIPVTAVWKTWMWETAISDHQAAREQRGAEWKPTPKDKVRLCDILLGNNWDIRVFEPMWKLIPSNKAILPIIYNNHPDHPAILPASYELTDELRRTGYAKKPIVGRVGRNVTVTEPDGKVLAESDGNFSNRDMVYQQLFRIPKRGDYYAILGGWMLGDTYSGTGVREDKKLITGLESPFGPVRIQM
Assay: inhibition of recombinant TRYS
Assay type: biochemical

## CN(C)CCCNC(=O)Cn1nc(-c2cccc(F)c2)c2ccccc21 [DDU 86439, N-(3-(dimethylamino)propyl)-2-(3-(3-fluorophenyl)-1H-indazol-1-yl)acetamide]
  IC50: 0.045 µM
